# Measurements as given in patent publication US7435847B2, “Preparation of solid ammonium glyphosate using organic solvent in extraction” (priority 2002, dated 2008).
# Tests used:
# [1] = saturation concentrations of ammonium glyphosate in different aqueous methanol solutions; format: physicochemical; conditions: 30° C.
# Excerpt: The amount of gaseous ammonia introduced is 1.01-1.5 times by mole as that of glyphosate added. When the ammonia is not enough, the reaction will not be carried out completely to cause the product having relatively more glyphosate, and thus a part of the water-soluble solid ammonium glyphosate may not be dissolved due to very low the solubility of glyphosate in water. If the ammonia is introduced in excess, relatively more free ammonia will remain in the system, thereby the ammonia will escape in subsequent processes to result in the environmental pollution. A relatively simple method for judging the end point of the reaction is to measure the pH of the reaction system. The inventor believes that the pH should be kept at 5-8. The solubility of ammonium glyphosate varies with the concentration of the aqueous methanol solution, the higher the concentration of aqueous methanol solution is, the lower the solubility of ammonium glyphosate is. The saturation concentrations of ammonium glyphosate in different concentrations of the aqueous methanol solution at 30° C. are listed in Table 1.
# [2] = concentration of aqueous solutions of ammonium glyphosate salt at room temperature; format: physicochemical; conditions: water
# Excerpt: Wherein m is a positive integer from 1 to 3, the ammonium cation may link to the hydroxyl which is bonded with a carbonyl or a phosphoryl. As for the single molecule, m equals 1-3. The generally used ammonium glyphosate salt is a mono-ammonium salt, namely, m equals 1. However, it may not be deemed simply that the ammonium glyphosate salt obtained in practical production has m just equal to a positive integer, but a value in the range of 0.8-1.3. These substances have very high solubility in water and the concentration of their aqueous solutions may be more than 20% at room temperature. However, they have very low solubility in such organic solvents that are completely miscible with any proportion of water or have a relatively high solubility in water. Thus, after the reaction is ended, such organic solvent(s) is(are) added to the reaction solution to form a homogeneous solution with water in the system, thereby substantially decreasing the solubility of the ammonium glyphosate salt therein and crystallizing the salt out. Such solvents may include, or may be, alcohols and acetals, etc. or a mixture of two or more solvents. The alcohols may include monobase alcohols having 1-4 carbon atoms. It is preferred to use methanol, ethanol, propanol, butanol and methylal in terms of cost effective, which can be used alone or as a mixture of thereof. […]
# [3] = 25° C.; cited from earlier work
Structure (SMILES),"Saturation concentration (w/w) % ([1]; content of methanol 5 (w/w) %, aqueous methanol solution)","Saturation concentration (w/w) % ([1]; content of methanol 20 (w/w) %, aqueous methanol solution)","Saturation concentration (w/w) % ([1]; content of methanol 40 (w/w) %, aqueous methanol solution)","Saturation concentration (w/w) % ([1]; content of methanol 60 (w/w) %, aqueous methanol solution)","Saturation concentration (w/w) % ([1]; content of methanol 80 (w/w) %, aqueous methanol solution)",Saturation concentration (w/w) % ([1]; content of methanol 100 (w/w) %),concentration of aqueous solution [2],solubility of glyphosate in water [3] [g per 100 g water]
N.O=C(O)CNCP(=O)(O)O [ammonium glyphosate],18.2 (w/w) %,8.9 (w/w) %,4.3 (w/w) %,1.5 (w/w) %,0.9 (w/w) %,0.6 (w/w) %,more than 20%,
"O=C(O)CNCP(=O)(O)O [glyphosate, N-phosphonomethyl glycine]",,,,,,,,1.2
